Data published in patent publication US20060194883A1, “Mmp expression inhibitor” (EISAI CO., LTD, priority 2003, published 2006).

How the values were obtained:
Assay type in all cases: cell-based
[1] = test system: HLE hepatic cancer cell line; experiment: cell proliferation by WST assay; conditions: 10^−6 to 10^−4 M, 48 hours, vs control without menatetrenone
Experimental: (§1) Menatetrenone was added at concentrations of 0 M, 10^−6 M, 10^−5 M and 10^−4 M to HepG2, Huh7, Hep3B and HLE hepatic cancer cell lines, and cell proliferation was studied by WST assay after 48 hours.

[2] = test system: Hep3B hepatic cancer cell line; experiment: cell proliferation by WST assay; conditions: 10^−6 to 10^−4 M, 48 hours, vs control without menatetrenone
Experimental: as §1

[3] = test system: HepG2 hepatic cancer cell line; experiment: cell proliferation by WST assay; conditions: 10^−6 to 10^−4 M, 48 hours, vs control without menatetrenone
Experimental: as §1

[4] = test system: Huh7 hepatic cancer cell line; experiment: cell proliferation by WST assay; conditions: 10^−6 to 10^−4 M, 48 hours, vs control without menatetrenone
Experimental: as §1

p16 = experiment: CDK inhibitor expression by RT-PCR in hepatic cancer cells; conditions: 10^−6 to 10^−4 M
Experimental: To investigate the mechanism of inhibition of cell proliferation, genes involved in promoting the cell cycle were focused on, and changes caused by addition of menatetrenone in the amount of expression of CDK inhibitors p21, p27 and p16 which inhibit cyclin dependent kinase (CDK), an enzyme which promotes the cell cycle, were analyzed by the RT-PCR and Western blot methods. In this test, menatetrenone was added at concentrations of 0 M, 10^−6 M, 10^−5 M and 10^−4 M to HepG2, Huh7, Hep3B and HLE hepatic cancer cell lines, RNA was collected after 48 hours, and 1 μg of total RNA was subjected to RT-PCR to investigate expression of p21, p27 and p16. RT-PCR was performed on GAPDH (glyceraldehyde 3-phosphate dehydrogenase) as a control.

[5] = test system: hepatic cancer cells (HepG2); experiment: Matrigel invasion test (double chamber); conditions: 10^−6 to 10^−4 M, 24 hours, NIH3T3 feeder
Experimental: To investigate the effect of menatetrenone in inhibiting invasion and metastasis of cancer cells, menatetrenone was added to hepatic cancer cells (HepG2) at concentrations of 0 M, 10^−6 M, 10^−5 M and 10^−4 M, and ability of the cancer cells to invade Matrigel was measured. In this test, cancer cells were spread on Matrigel which had been coated on the upper chamber of a double chamber, menatetrenone was added thereto. NIH3T3 cells were spread on the lower chamber as a feeder. The number of cells that had passed through the Matrigel and migrated to the bottom of the upper chamber after 24 hours was observed microscopically.

Ets-1 = experiment: gene expression with TPA induction, RT-PCR; conditions: HepG2; 20 nM TPA then menatetrenone
Experimental: (§2) MMP and Ets-1, the expression of which is inhibited by menatetrenone, are known to be genes that are induced by 12-O-tetradecanoylphorbol-13-acetate (TPA) as well as uPA (urokinase plasminogen activator) and the like. In order to discover whether menatetrenone controls expression of genes activated by TPA, TPA was added to HepG2 cultured hepatic cancer cells at a concentration of 20 nM, menatetrenone was then added thereto, and RT-PCR and Western blot were performed to investigate whether expression of the aforementioned gene expression of which was induced by TPA was affected. […] On the other hand, the uPA receptor uPAR and the uPA inhibitor PAI were not affected.

MMP-1 [6] = experiment: gene expression with TPA induction, RT-PCR; conditions: HepG2; 20 nM TPA then menatetrenone
Experimental: as §2

MMP-3 [7] = experiment: gene expression with TPA induction, RT-PCR; conditions: HepG2; 20 nM TPA then menatetrenone
Experimental: as §2

MMP-7 = experiment: gene expression with TPA induction, RT-PCR; conditions: HepG2; 20 nM TPA then menatetrenone
Experimental: as §2

[8] = test system: uPA (urokinase plasminogen activator); experiment: gene expression with TPA induction, RT-PCR; conditions: HepG2; 20 nM TPA then menatetrenone
Experimental: as §2

MMP-1 [9] = experiment: gene expression with TPA induction, Western blot; conditions: HepG2, 20 nM TPA then menatetrenone
Experimental: as §2

MMP-3 [10] = experiment: gene expression with TPA induction, Western blot; conditions: HepG2, 20 nM TPA then menatetrenone
Experimental: as §2

**Q.** What does the source list for `CC(C)=CCC/C(C)=C/CC/C(C)=C/CC/C(C)=C/CC1=C(C)C(=O)c2ccccc2C1=O` [menatetrenone, 2-methyl-3-tetraprenyl-1,4-naphthoquinone]?
**A.** cell proliferation [1]: dose-dependently inhibited; cell proliferation [2]: dose-dependently inhibited; cell proliferation [3]: dose-dependently inhibited; cell proliferation [4]: dose-dependently inhibited; p16 expression (p16; Hep3B cells): slight increase; p16 expression (p16; Huh7 cells): no changes; ability of cancer cells to invade Matrigel [5]: dose-dependently inhibits; TPA-induced mRNA expression of Ets-1 (Ets-1): dose-dependently inhibited; TPA-induced mRNA expression of MMP-1 (MMP-1 [6]): dose-dependently inhibited; TPA-induced mRNA expression of MMP-3 (MMP-3 [7]): dose-dependently inhibited; TPA-induced mRNA expression of MMP-7 (MMP-7): dose-dependently inhibited; TPA-induced mRNA expression of uPA [8]: dose-dependently inhibited; TPA-induced expression of MMP-1 at the protein level (MMP-1 [9]): dose-dependently inhibited; TPA-induced expression of MMP-3 at the protein level (MMP-3 [10]): dose-dependently inhibited
